According to patent publication US20130109698A1, “Small Molecule Inhibitors of Functions of the HIV-1 Matrix Protein” (priority 2010, published 2013):

Legend:
[1] = system: HIV-1 92BR030; experiment: Anti-HIV efficacy in human PBMCs, reverse transcriptase activity; type: cell-based; details: HIV-1 92BR030, PBMCs; for IC50 / IC90: Human immunodeficiency virus 1, PBMC
Procedure: (§1) HIV human peripheral blood mononuclear cell (PBMC) assays were performed as described previously (Lanier et al., 2010, Antimicrob Agents Chemother 54:2901-2909 and Ptak et al., 2008, Antimicrob Agents Chemother 52:1302-1317). Briefly, fresh PBMCs, seronegative for HIV and hepatitis B virus (HBV), were isolated from blood samples of the screened donors (Biological Specialty Corporation, Colmar, Pa.) by using lymphocyte separation medium (LSM; density, 1.078±0.002 g/ml; Cellgro; Mediatech, Inc.) by following the manufacturer's instructions. Cells were stimulated by incubation in 4 μg/mL phytohemagglutinin (PHA; Sigma) for 48 to 72 h. Mitogenic stimulation was maintained by the addition of 20 U/mL recombinant human interleukin-2 (rhIL-2; R&D Systems, Inc.) to the culture medium. PHA-stimulated PBMCs from at least two donors were pooled, diluted in fresh medium, and added to 96-well plates at 5×10^4 cells/well. Cells were infected (final multiplicity of infection [MOI] of ≅0.1) in the presence of nine different concentrations of test compounds (triplicate wells/concentration) and incubated for 7 days. To determine the level of virus inhibition, cell-free supernatant samples were collected for analysis of reverse transcriptase activity (Buckheit et al., 1991, AIDS Res Hum Retroviruses 7:295-302). Following removal of supernatant samples, compound cytotoxicity was measured by the addition of 3-(4,5-dimethylthiazol-2-yl)-5-(3-carboxymethoxy-phenyl)-2-(4-sulfophenyl)-2H-tetrazolium (MTS; CellTiter 96 reagent; Promega) by following the manufacturer's instructions.

[2] = system: HIV-1 93IN101; experiment: as above; type: cell-based; details: HIV-1 93IN101, PBMCs; for IC50 / IC90: Human immunodeficiency virus 1, PBMC
Procedure: as §1

[3] = system: SIV MAC251; experiment: Antiviral efficacy in PBMCs, reverse transcriptase activity; type: cell-based; details: for IC50 / IC90: Simian immunodeficiency virus, PBMC
[4] = system: HIV-1 89BZ167 Subtype B; experiment: Anti-HIV efficacy in human PBMCs; type: cell-based; details: for IC50 / IC90: Human immunodeficiency virus 1, PBMC, PBMCs
Procedure: as §1

[5] = system: HIV-1 92BR025 Subtype C; experiment: Anti-HIV efficacy in human PBMCs; type: cell-based; details: for IC50 / IC90: Human immunodeficiency virus 1, PBMC, PBMCs
Procedure: as §1

[6] = system: HIV-1 92UG024 Subtype D; experiment: Anti-HIV efficacy in human PBMCs; type: cell-based; details: for IC50 / IC90: Human immunodeficiency virus 1, PBMC, PBMCs
Procedure: as §1

[7] = system: HIV-1 92UG031 Subtype A; experiment: Anti-HIV efficacy in human PBMCs; type: cell-based; details: for IC50 / IC90: Human immunodeficiency virus 1, PBMC, PBMCs
Procedure: as §1

[8] = system: HIV-1 93BR020 Subtype F; experiment: Anti-HIV efficacy in human PBMCs; type: cell-based; details: for IC50 / IC90: Human immunodeficiency virus 1, PBMC, PBMCs
Procedure: as §1

[9] = system: HIV-1 BCF02 Group O; experiment: Anti-HIV efficacy in human PBMCs; type: cell-based; details: for Antiviral index (TC50/IC50) / IC50 / IC90: BCF02 Group O; for IC50 / IC90: Human immunodeficiency virus 1, PBMC
Procedure: as §1

[10] = system: HIV-1 CMU08 Subtype E; experiment: Anti-HIV efficacy in human PBMCs; type: cell-based; details: for IC50 / IC90: Human immunodeficiency virus 1, PBMC, PBMCs
Procedure: as §1

[11] = system: HIV-1 G3 Subtype G; experiment: Anti-HIV efficacy in human PBMCs; type: cell-based; details: for Antiviral index (TC50/IC50): G3 Subtype G; for IC50 / IC90: Human immunodeficiency virus 1, PBMC
Procedure: as §1

[12] = Compound cytotoxicity in PBMCs (MTS); type: cell-based, human; details: human; Table 4 study, PBMCs; read-out: TC50
Procedure: as §1

[13] = system: herpes simplex type 1; experiment: Antiviral spectrum: HSV-1 in Vero cells; type: cell-based; details: herpes simplex type 1, up to 100 μM
Procedure: The effects of the compounds on HSV-1 (dsDNA; strain HF evaluated in Vero cells; virus and cells obtained from the American Type Culture Collection [ATCC]) were assessed as described previously (Ptak et al., 2008, Antimicrob Agents Chemother 52:1302-1317).

[14] = system: Dengue serotypes 1-4; experiment: Antiviral spectrum: cytopathic effect assay; type: cell-based
[15] = system: respiratory syncytial virus; experiment: Antiviral spectrum: cytopathic effect assay; type: cell-based
[16] = system: yellow fever; type: cell-based; details: up to 100 μM
[17] = system: Japanese encephalitis; experiment: Antiviral spectrum: cytopathic effect assay; type: cell-based
[18] = system: luciferase-reporter HIV-1 NL4-3 pseudotyped with HxBc2 envelope produced in 293T cells; experiment: microbe, parasite or virus in culture

| Structure (SMILES) | Antiviral index (TC50/IC50) [1] | IC50 [1] | IC90 [1] | Antiviral index (TC50/IC50) [2] | IC50 [2] | IC90 [2] | Antiviral index (TC50/IC50) [3] | IC50 [3] | IC90 [3] | Antiviral index (TC50/IC50) [4] | IC50 [4] | IC90 [4] | Antiviral index (TC50/IC50) [5] | IC50 [5] | IC90 [5] | Antiviral index (TC50/IC50) [6] | IC50 [6] | IC90 [6] | Antiviral index (TC50/IC50) [7] | IC50 [7] | other results |
| --- | --- | --- | --- | --- | --- | --- | --- | --- | --- | --- | --- | --- | --- | --- | --- | --- | --- | --- | --- | --- | --- |
| O=C(CNC(=O)COc1ccccc1)NCc1ccc(C(=O)N2CCCCC2)cc1 [CMPD-14, N-(2-oxo-2-((4-(piperidine-1-carbonyl)benzyl)amino)ethyl)-2-phenoxyacetamide] | > 4.51 | 22.2 µM | 68.6 µM | > 5.56 | 18 µM | 62.1 µM | > 5.85 | 17.1 µM | 44.2 µM | >4.66 | 21.4 µM | 40.7 µM | >4.24 | 23.6 µM | 96.6 µM | >5.41 | 18.5 µM | 29.5 µM | >5.40 | 18.5 µM | IC90 [7]: 42.2 µM; Antiviral index (TC50/IC50) [8]: >4.93; IC50 [8]: 20.3 µM; IC90 [8]: 32.6 µM; Antiviral index (TC50/IC50) [9]: >4.57; IC50 ([9]; PBMCs): 21.9 µM; IC90 ([9]; PBMCs): 45 µM; Antiviral index (TC50/IC50) [10]: >6.27; IC50 [10]: 16 µM; IC90 [10]: 59.5 µM; Antiviral index (TC50/IC50) [11]: >4.88; IC50 [11]: 20.5 µM; IC90 [11]: 29.2 µM; CC50 at 7 days [12]: > 100 µM; inhibitory effects on replication [13]: no inhibitory effects; inhibitory effects on replication [14]: no inhibitory effects; inhibitory effects on replication [15]: no inhibitory effects; inhibitory effects on replication [16]: no inhibitory effects; inhibitory effects on replication [17]: no inhibitory effects; IC50 [18]: 95 µM |
| CCOc1ccc(NC(=O)Cc2cn3ccsc3n2)cc1S(=O)(=O)N1CCCCC1 [CMPD-18, N-(4-ethoxy-3-(piperidin-1-ylsulfonyl)phenyl)-2-(imidazo[2,1-b]thiazol-6-yl)acetamide] | 3.95 | 23.4 µM | 94 µM | 3.00 | 30.8 µM | 85.2 µM | 1.06 | 87.1 µM | > 100 µM | >2.94 | 21.3 µM | 71.8 µM | >2.79 | 22.4 µM | 75 µM | >6.02 | 10.4 µM | 25.9 µM | >3.98 | 15.8 µM | IC90 [7]: 64.7 µM; Antiviral index (TC50/IC50) [8]: >3.39; IC50 [8]: 18.5 µM; IC90 [8]: 54.1 µM; Antiviral index (TC50/IC50) [9]: >2.30; IC50 ([9]; PBMCs): 27.2 µM; IC90 ([9]; PBMCs): 75.6 µM; Antiviral index (TC50/IC50) [10]: >5.00; IC50 [10]: 15.9 µM; IC90 [10]: 95 µM; Antiviral index (TC50/IC50) [11]: >10.9; IC50 [11]: 5.73 µM; IC90 [11]: 21 µM; CC50 at 7 days [12]: 92.3 µM; inhibitory effects on replication [13]: no inhibitory effects; inhibitory effects on replication [14]: no inhibitory effects; inhibitory effects on replication [15]: no inhibitory effects; inhibitory effects on replication [16]: no inhibitory effects; inhibitory effects on replication [17]: no inhibitory effects; IC50 [18]: > 100 µM |
| Cc1ccc(NC(=O)CN2CCN(Cc3nc(-c4ccc(F)cc4)no3)CC2)cc1 [CMPD-7, 2-(4-((3-(4-fluorophenyl)-1,2,4-oxadiazol-5-yl)methyl)piperazin-1-yl)-N-(p-tolyl)acetamide] | > 10.72 | 9.33 µM | > 100 µM | > 6.13 | 16.3 µM | > 100 µM | > 10.55 | 9.48 µM | 31 µM | >6.97 | 14.4 µM | > 100 µM | >9.51 | 10.5 µM | > 100 µM | >11.3 | 8.88 µM | 35.2 µM | >6.72 | 14.9 µM | IC90 [7]: > 100 µM; Antiviral index (TC50/IC50) [8]: >6.42; IC50 [8]: 15.6 µM; IC90 [8]: > 100 µM; IC50 ([9]; PBMCs): > 100 µM; IC90 ([9]; PBMCs): > 100 µM; activity against the group O isolate HIV-1BCF02, in words ([9]; over the concentrations tested, PBMCs): no activity; Antiviral index (TC50/IC50) [10]: >10.4; IC50 [10]: 9.64 µM; IC90 [10]: 99.7 µM; Antiviral index (TC50/IC50) [11]: >9.36; IC50 [11]: 10.7 µM; IC90 [11]: 30.2 µM; CC50 at 7 days [12]: > 100 µM; inhibitory effects on replication [13]: no inhibitory effects; inhibitory effects on replication [14]: no inhibitory effects; inhibitory effects on replication [15]: no inhibitory effects; inhibitory effects on replication [16]: no inhibitory effects; inhibitory effects on replication [17]: no inhibitory effects; IC50 [18]: 28 µM |
